Source: US12583858B2 (Genentech, Inc., priority 2015, dated 2026)
Like-named read-outs stand apart in the source and are kept apart here.

Tests used:
[1] = target: T1, TDO2 (Homo sapiens, UniProt P48775); test: TDO2 cell assay (NFK GreenScreen, SW48 cells); assay type: cell-based; conditions: SW48 cells (high TDO expressing)
T1 construct: decreased levels of NFK in SW48 cells (high TDO expressing cells)

[2] = target: T2, IDO (Homo sapiens, UniProt P14902); test: IDO cell assay (NFK GreenScreen, A172+IFNg cells); assay type: cell-based; conditions: A172 cells + 100 ng/ml IFNγ (high IDO expressing), 100 uM tryptophan, 24 hours; TDO selectivity table; read-out: IDO cell Fluor EC50
T2 construct: selective against A172+IFNg cells (high IDO expressing cells)
T2 sequence (P14902 whole entry): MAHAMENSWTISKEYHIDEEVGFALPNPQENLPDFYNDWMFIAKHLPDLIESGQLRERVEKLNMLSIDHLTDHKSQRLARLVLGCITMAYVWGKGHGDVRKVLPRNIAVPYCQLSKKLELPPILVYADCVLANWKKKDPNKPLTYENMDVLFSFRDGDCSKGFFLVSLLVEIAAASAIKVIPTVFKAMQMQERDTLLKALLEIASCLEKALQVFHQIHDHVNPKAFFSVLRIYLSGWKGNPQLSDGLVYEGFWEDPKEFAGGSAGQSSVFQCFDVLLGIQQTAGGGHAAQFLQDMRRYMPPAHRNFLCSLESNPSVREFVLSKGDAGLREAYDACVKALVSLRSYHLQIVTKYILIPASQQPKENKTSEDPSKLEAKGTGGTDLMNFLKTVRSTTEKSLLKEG
Description: Cells are counted on a Vi-Cell (Beckman Coulter). […] The final DMSO concentration is 0.5%.
Compounds of the invention were tested for selectivity against TDO over IDO. The cell based assay described above was used to test for TDO and IDO activity.

[3] = 200 uM tryptophan, 24 hours, Table 3, read-out: TDO2 Cell Fluor EC50
[4] = TDO selectivity table, read-out: TDO2 cell Fluor EC50

T1 sequence (P48775 whole entry): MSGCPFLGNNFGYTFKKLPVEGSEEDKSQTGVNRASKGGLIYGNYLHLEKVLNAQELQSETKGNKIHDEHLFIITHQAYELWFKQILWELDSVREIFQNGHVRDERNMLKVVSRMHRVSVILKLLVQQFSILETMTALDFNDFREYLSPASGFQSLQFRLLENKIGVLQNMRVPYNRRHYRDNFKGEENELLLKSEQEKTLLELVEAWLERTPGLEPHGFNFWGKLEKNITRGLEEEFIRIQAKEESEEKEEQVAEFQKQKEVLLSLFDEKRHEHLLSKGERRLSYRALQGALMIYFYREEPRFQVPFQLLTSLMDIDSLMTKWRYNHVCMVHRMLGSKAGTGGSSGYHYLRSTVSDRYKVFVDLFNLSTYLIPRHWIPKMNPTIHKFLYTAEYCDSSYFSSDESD

With O[C@@H]1c2cncn2CC[C@H]1[C@H]1c2ccccc2-c2cncn21 [Example 07h, (7S,8S)-7-((S)-5H-imidazo[5,1-a]isoindol-5-yl)-5,6,7,8-tetrahydroimidazo[1,5-a]pyridin-8-ol] the EC50 [1, 3] was 860 nM, the EC50 [1, 4] was 860 nM and the EC50 [2] was over 25000 nM.
Compound CCS(=O)(=O)N1CC[C@@H]([C@H]2c3ccccc3-c3cncn32)[C@H](O)C1 [Example 16a, (3S,4S)-1-(ethylsulfonyl)-4-((S)-5H-imidazo[5,1-a]isoindol-5-yl)piperidin-3-ol] has an EC50 [1, 3] of 110 nM, an EC50 [1, 4] of 110 nM and an EC50 [2] of 1200 nM.
CC1(C)C[C@@H](O)[C@@H]1[C@H]1c2ccccc2-c2cncn21 [Example 22b, (1R,2S)-2-((S)-5H-imidazo[5,1-a]isoindol-5-yl)-3,3-dimethylcyclobutan-1-ol] gave an EC50 [1, 3] of 16 nM, an EC50 [1, 4] of 16 nM and an EC50 [2] of 2000 nM.
C[C@H](O)[C@H]1c2ccccc2-c2cncn21 [Example 42c, (S)-1-((R)-5H-imidazo[5,1-a]isoindol-5-yl)ethan-1-ol] showed an EC50 [1, 3] of 250 nM, an EC50 [1, 4] of 250 nM and an EC50 [2] of 5000 nM.
Compound O[C@@H]1c2ccnn2CC[C@H]1[C@H]1c2ccccc2-c2cncn21 [Example 56a, (4S,5S)-5-((S)-5H-imidazo[5,1-a]isoindol-5-yl)-4,5,6,7-tetrahydropyrazolo[1,5-a]pyridin-4-ol] has an EC50 [1, 3] of 150 nM, an EC50 [1, 4] of 150 nM and an EC50 [2] of 4500 nM.
NC(=O)c1ccc2c(c1)CC[C@@H]([C@H]1c3ccccc3-c3cncn31)[C@@H]2O [Example 60e, (5S,6S)-5-hydroxy-6-((S)-5H-imidazo[5,1-a]isoindol-5-yl)-5,6,7,8-tetrahydronaphthalene-2-carboxamide] gave an EC50 [1, 3] of 35 nM, an EC50 [1, 4] of 35 nM and an EC50 [2] of 1400 nM.
